The values that follow come from US20030088057A1, “PEPTIDE SUBSTRATES PHOSPHORYLATED BY P21-ACTIVAGED PROTEIN KINASE STATEMENT REGARDING FEDERALLY SPONSORED REASEARCH OR DEVELOPMENT” (priority 1998, published 2003).

“Also recorded” adds a separate entry of the source. Like-named read-outs stand apart in the source and are kept apart here. No end group written: not given here.

Assay [1] concerns γ-PAK. The assay can be described thus: Kinetic parameters (Km, Vmax) for phosphorylation of synthetic peptides by γ-PAK. It is filed as biochemical, rabbit. The settings on record: for Km: read-out: Km. The method, then:
(§1) Assays with peptides (I mM) were carried out with γ-PAK (1.6-5.6 units) in 25 μL reaction mixtures incubated for 30 min at 30° C. under conditions described above, except that 0.4 mg/mL of bovine serum albumin was added and the specific activity of ATP was 300-2000 cpm/pmol. Reactions were terminated with 5 μL of 100 mM ATP, and the amount of ^32p incorporated was quantitated by precipitation of 20 μL aliquots on P81 phosphocellulose paper with 75 mM H3PO4 as described previously [Bensen, E. S., et al., Biochim. Biophys. Acta, 1292:249-258 (1996)]. Peptides containing only one basic amino acid were analyzed by thin-layer electrophoresis on cellulose sheets for 2 h at 600 V with pyridine/acetic acid/water (10:100:890), pH 3.5, as solvent, as described previously [Bensen, E. S., et al., supra]. Activation of γ-PAK by autophosphorylation in the presence of Cdc42(GTPγS) was performed as previously described [Jakobi, R., et al., supra]. γ-PAK was also activated by limited digestion with trypsin as described previously [Rooney, R. D., et al., (1996), supra].
Target sequence in this assay (Q29502 249-500 limits assumed): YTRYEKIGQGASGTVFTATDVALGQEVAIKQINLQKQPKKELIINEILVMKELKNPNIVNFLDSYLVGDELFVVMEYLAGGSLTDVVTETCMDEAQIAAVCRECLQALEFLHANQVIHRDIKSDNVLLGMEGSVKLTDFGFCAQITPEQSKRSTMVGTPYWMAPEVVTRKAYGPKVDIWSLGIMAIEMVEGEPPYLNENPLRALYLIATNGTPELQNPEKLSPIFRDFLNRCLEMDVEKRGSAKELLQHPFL

Assay [2] addresses T1, γ-PAK (Oryctolagus cuniculus, UniProt Q29502).
T1 construct: γ-PAK was purified from rabbit reticulocytes to apparent homogeneity; from tissue; host or cells: rabbit reticulocytes (γ-PAK)
Put plainly: Phosphorylation of heptapeptides by Cdc42-activated γ-PAK with ATP(Mg) and ATP(Mn). The settings on record: γ-PAK 2.5 units, Cdc42(GTPγS)-activated; 10 mM MgCl2 or 6 mM MnCl2. It is filed as biochemical, rabbit. The method, then: Synthetic heptapeptides were used to examine the activity of γ-PAK with manganese and magnesium. The peptides were incubated with γ-PAK (2.5 units), activated by autophosphorylation in the presence of Cdc42(GTPγS) and 10 mM MgCl2 or 6 mM MnCl2 as described under Experimental Procedures.

For assay [3], the system named is γ-PAK. Put plainly: Rates of phosphorylation of synthetic peptides by γ-PAK. It is filed as biochemical, rabbit. Conditions: for substrate for γ-PAK (in words): synthetic peptides; for 32P incorporated, %: AKRASAA taken as 100%.
Excerpt: (§2) A. Materials. γ-PAK was purified from rabbit reticulocytes to apparent homogeneity by chromatography on DEAE-cellulose, SP-Sepharose, protamine agarose, and FPLC on Mono S and Mono Q. Histone I (type IIIS), mixed histone (type IIAS), trypsin (L-1-tosylamido-2-phenylethyl chloromethyl ketone treated), soybean trypsin inhibitor, bovine serum albumin (fatty acid free), and myelin basic protein were purchased from Sigma. Purified histones 2B and 4 were purchased from Boehringer-Mannheim. Myosin light chain from rabbit skeletal muscle was a gift from Dr. James Stull, University of Texas Southwestern Medical Center, Dallas, Tex.; rat prolactin was provided by Dr. Ameae Walker, University of California, Riverside, Calif.; and the purified catalytic subunit of cAMP-dependent protein kinase from bovine heart was a gift from Dr. William H. Fletcher, J. L. Pettis Memorial V. A. Hospital, Loma Linda, Calif. Protein kinase C was purified from bovine brain according to the procedure of Walton et al. [Walton, G. M., et al., Anal Biochem., 161:425-437 (1987)], with modifications [Venema, R. C., et al., J. Biol. Chem., 266:5298-5302 (1991)]. The clone for GST-Cdc42 was generously provided by Dr. Channing Der, University of North Carolina, Chapel Hill, N.C. Cellulose thin-layer chromatography sheets were from Kodak.
(§3) D. Phosphorylation Assays. Phosphorylation of protein substrates was carried out in 35 μL reaction mixtures containing 20 mM Tris-HCl, pH 7.4, 10 mM MgCl2, 30 mM 2-mercaptoethanol, 0.2 mM ATP (specific activity =1000 cpm/pmol), 2 μg of protein substrate, and 20 units of active γ-PAK (an enzyme unit is defined as the amount of enzyme that incorporates 1 pmol of phosphate into histone IIAS/ min at 30°. Under these conditions, phosphate incorporation was linear and initial rates of phosphorylation were measured. After incubation at 30° C. for 15 min, reactions were terminated by the addition of 5 μL of 100 mM nonlabeled ATP and sample buffer for gel electrophoresis [Hathaway, G. M., et al., Methods Enzymol., 60:495-511 (1979)]. Reaction mixtures were subjected to SDS-PAGE on 15% polyacrylamide gels followed by autoradiography. Phosphorylation was quantified by excising the protein band and counting the incorporated ^32P in a liquid scintillation counter. The specific activity of γ-PAK was 400 pmol min^−1 μg^−1 as reported previously using 0.2 mM ATP and 1 mg/mL mixed histone as substrate [Rooney, R. D., et al., (1996), supra].
as §1
Target sequence in this assay (Q29502 249-500 limits assumed): as above

Assay [4] concerns the target T2, PKA (Bos taurus, UniProt P00517).
T2 construct: the purified catalytic subunit of cAMP-dependent protein kinase from bovine heart was a gift; from tissue; host or cells: bovine heart (gift from Dr. William H. Fletcher)
The assay can be described thus: Rates of phosphorylation of synthetic peptides by PKA. In kind it is biochemical, bovine. The settings on record: for 32P incorporated: PKA (10.5 units), 0.14 mM ATP.
Excerpt: as §2, with “Myosin light chain from rabbit skeletal muscle was a gift from Dr. James Stull, University of Texas Southwestern Medical Center, Dallas, Tex.; rat prolactin was provided by Dr. Ameae Walker, University of California, Riverside, Calif.; and the purified catalytic subunit of cAMP-dependent protein kinase from bovine heart was a gift from Dr. William H. Fletcher, J. L. Pettis Memorial V. A. Hospital, Loma Linda, Calif.” left out
(§4) Reactions with PKA (10.5 units) were carried out under the same conditions as with γ-PAK except that 0.14 mM ATP was used. Reactions with PKC (3.4 units) were performed as with PKA, with the addition of 0.4 mM CaCl2, phosphatidylinositol (15 μg/mL), phosphatidylserine (15 μg/ mL), and 1,2-diolein (3 μg/mL), as described [Tuazon, P. T., et al., (1989), supra]. A unit of PKA or PKC is defined as the amount of enzyme that incorporates 1 pmol of phosphate/min at 30° C. into histone IIAS or histone 1, respectively.
PKA and PKC are known to require basic amino acids on the N-terminal side of the phosphorylatable serine/ threonine. To distinguish their substrate specificities from that of γ-PAK, the relative rates of phosphorylation were determined with the synthetic peptide substrates using the conditions for γ-PAK, with the addition of Ca^2+ and phospholipids for PKC.

The test system of assay [5] is PKC. The assay can be described thus: Rates of phosphorylation of synthetic peptides by PKC. It is filed as biochemical, bovine. The settings on record: for 32P incorporated: PKC (3.4 units), with Ca2+ and phospholipids, 0.14 mM ATP; for 32P incorporated, %: PKC, AKRASAA taken as 100%.
Excerpt: as §2, §4
PKA and PKC are known to require basic amino acids on the N-terminal side of the phosphorylatable serine/ threonine. To distinguish their substrate specificities from that of γ-PAK, the relative rates of phosphorylation were determined with the synthetic peptide substrates using the conditions for γ-PAK, with the addition of Ca^2+ and phospholipids for PKC. The rates shown in Table 5 are calculated with equivalent units of enzyme; the rate of phosphorylation of the peptide AKRASAA (SEQ ID NO:6) is taken as 100% for all three enzymes. As would be expected, PKA preferentially phosphorylated the peptides that contained RR or RK at the −3 and −2 positions and with […] residues or proline at the −4 and −1 positions inhibitory. PKC recognized SKR>RKS>KKS. The most notable difference between γ-PAK and PKA or PKC is the effect of acidic residues on the susceptibility of the peptide to be phosphorylated. An acidic residue in the −1 or −4 position was beneficial for γ-PAK but was detrimental for both PKA and PKC (Table 5). […] In addition, γ-PAK could not tolerate an arginine in the −3 position when lysine was in the −2 position.

For assay [6], the system named is γ-PAK. The assay can be described thus: Phosphorylation of protein substrates by γ-PAK. In kind it is biochemical, rabbit. The settings on record: for substrate for γ-PAK (in words): proteins. The method, then:
as §3
Target sequence in this assay (Q29502 249-524 limits assumed): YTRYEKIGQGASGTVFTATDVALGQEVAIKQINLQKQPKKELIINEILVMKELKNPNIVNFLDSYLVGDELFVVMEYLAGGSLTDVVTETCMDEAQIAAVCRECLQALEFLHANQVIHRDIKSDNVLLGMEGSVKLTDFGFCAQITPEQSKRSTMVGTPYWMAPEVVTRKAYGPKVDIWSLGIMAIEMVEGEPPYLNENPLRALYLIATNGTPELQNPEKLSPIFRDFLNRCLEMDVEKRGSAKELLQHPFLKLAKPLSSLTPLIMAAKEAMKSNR
A number of proteins were examined as substrates, and their relative rates of phosphorylation were compared (Table 6).

Where [7] appears, read: Cdc42(GTPγS)-activated γ-PAK, peptide 1 mM, KKRKSAA = 100.
[8] abbreviates: proteolytically (trypsin) activated γ-PAK, peptide 1 mM, compared to KKRKSAA = 100.
[9] abbreviates: proteolytically activated γ-PAK (5.6 units), peptide 1 mM, 30 min at 30° C.
Where [10] appears, read: Table 3, influence of acidic amino acids.
Setting [11] is: γ-PAK, calculated with equivalent units of enzyme.
[12] abbreviates: Table 4, influence of proline and glycine.

T1 sequence (Q29502 2-524 limits assumed): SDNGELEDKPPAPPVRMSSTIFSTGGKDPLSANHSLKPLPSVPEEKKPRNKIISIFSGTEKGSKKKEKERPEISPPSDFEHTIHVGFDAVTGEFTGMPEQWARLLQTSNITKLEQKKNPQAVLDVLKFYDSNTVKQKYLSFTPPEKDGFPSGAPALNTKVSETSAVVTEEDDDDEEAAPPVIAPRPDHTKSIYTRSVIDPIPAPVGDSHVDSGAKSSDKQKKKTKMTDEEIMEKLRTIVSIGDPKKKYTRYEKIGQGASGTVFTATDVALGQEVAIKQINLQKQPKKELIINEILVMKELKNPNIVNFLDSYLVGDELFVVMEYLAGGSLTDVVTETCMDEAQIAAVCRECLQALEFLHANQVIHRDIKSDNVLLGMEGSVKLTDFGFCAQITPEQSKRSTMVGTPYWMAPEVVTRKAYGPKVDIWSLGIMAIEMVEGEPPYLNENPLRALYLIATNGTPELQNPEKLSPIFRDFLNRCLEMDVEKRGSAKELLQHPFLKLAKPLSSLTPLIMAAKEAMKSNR

In the case of “AKAASAA (AKAASAA-NH2) [synthetic peptide with an amide C-terminal group]”, in assay [1] (Table 2, influence of basic amino acids, γ-PAK 1.6 units, ATP 0.2 mM), the Km (in general, the concentration of substrate that gives half-maximal velocity) is more than 5000 µM. Also, the “phosphorylation using ATP(Mg) or ATP(Mn) (in words)” value (shortened to “phosphorylation … (in words)”) in assay [2] was “not phosphorylated”. Moreover, the “rel rate (%)” value is given as 3% in assay [3] (setting [7]) and 2% in assay [3] (setting [8]). For the same substance, the 32P incorporated in assay [3] (setting [9]) amounted to 5 pmol/min/µg. In assay [3], the “substrate for γ-PAK (in words)” value is “did not serve as substrate; also recorded: could not be phosphorylated”.
For “AKKASAA (AKKASAA-NH2) [synthetic peptide with an amide C-terminal group]”, the “phosphorylation … (in words)” value in assay [2] is given as “not phosphorylated”. The “substrate for γ-PAK (in words)” value in assay [3] is recorded as “poor substrates”.
Turning to “AKRESAA (AKRESAA-NH2) [synthetic peptide with an amide C-terminal group]”, in assay [1], the “increase of Km compared to AKRASAA” value is recorded as approximately 3 fold. Further, the “increase of Vmax compared to AKRASAA” value in assay [1] is on record as 6 fold. In assay [1], the “overall rate of phosphorylation (Vmax/Km) compared to AKRASAA” value is listed as approximately 2.2 fold. Also, the maximal velocity (Vmax) in assay [1] (setting [10]) and in assay [1] (text summary b32) was 6.62 pmol/min each time. For the same substance, the Michaelis constant (Km) in assay [1] (setting [10]) was 1350 µM. The 32P incorporated in assay [4] was 1.8 pmol/unit; in assay [5], 0.4 pmol/unit; in assay [3] (setting [9]) it was 750 pmol/min/µg; in assay [3] (setting [11]), 47.2 pmol/unit. Further, the “32P incorporated, %” value in assay [4] (PKA, AKRASAA taken as 100%) is 38%; in assay [5], 12%; in assay [3] (γ-PAK), 176%. For the same substance, the “phosphorylation … (in words)” value in assay [2] is on record as “good substrates”. The “rel rate (%)” value is 295% in assay [3] (setting [7]) and 247% in assay [3] (setting [8]). Also, in assay [3] (γ-PAK, relative to AKRASAA), the “rate of phosphorylation compared to AKRASAA” value is listed as 175%.
“PKRASAA (PKRASAA-NH2) [synthetic peptide with an amide C-terminal group]”: the “decrease of Km compared to AKRASAA” value in assay [1] is listed as “≈ 2 fold”. In addition, the “increase of Vmax compared to AKRASAA” value in assay [1] is given as “no effect”. Further, the “overall rate of phosphorylation (Vmax/Km) compared to AKRASAA” value in assay [1] turned out to be 2 fold. The maximal velocity (Vmax) (commonly the rate approached at saturating substrate) in assay [1] (setting [12]) is reported as 1.10 pmol/min. Moreover, the Km in assay [1] (setting [12]) was 240 µM. The 32P incorporated in assay [4] was 6.9 pmol/unit; in assay [5], 8.7 pmol/unit; in assay [3] (setting [9]), 636 pmol/min/µg; in assay [3] (setting [11]), 40.5 pmol/unit. Besides, the “32P incorporated, %” value worked out at 264% in assay [5] and 151% in assay [3] (γ-PAK). The figures for the “rel rate (%)” value in assay [3] (setting [7]) and in assay [3] (setting [8]) were 184% and 209%, respectively.
Consider casein, for which, in assay [6], the “substrate for γ-PAK (in words)” value was “not substrates”.
For “cdc42: small G protein; not a substrate for γ-PAK (data not shown)”, the “substrate for γ-PAK (in words)” value in assay [6] was “not substrates”.
Turning to protamine, in assay [6] (2 μg protein substrate, 20 units active γ-PAK, 15 min at 30° C.), the 32P incorporated was determined as 0 pmol. Moreover, the figures for the “substrate for γ-PAK (in words)” value in assay [6] and in assay [6] (listed as Protamine) were “not a good substrate; also recorded: did not serve as substrates” and “not substrates”, respectively. Also, the rel rate in assay [6] (relative to histone 2B = 100) came out at 0%.
